According to PMC6900491, “The LRRC8 volume‐regulated anion channel inhibitor, DCPIB, inhibits mitochondrial respiration independently of the channel” (Physiological Reports, 2019):

Molecular target: T1, LRRC8A (volume-regulated anion channel, VRAC) (Homo sapiens, UniProt Q8IWT6)
T1 construct: endogenous VRAC in WT HAP-1 and HEK-293 cells (current absent in LRRC8A-KO cells); with at least one other LRRC8 subunit (LRRC8B, C, D or E)
T1 sequence (Q8IWT6 1-810): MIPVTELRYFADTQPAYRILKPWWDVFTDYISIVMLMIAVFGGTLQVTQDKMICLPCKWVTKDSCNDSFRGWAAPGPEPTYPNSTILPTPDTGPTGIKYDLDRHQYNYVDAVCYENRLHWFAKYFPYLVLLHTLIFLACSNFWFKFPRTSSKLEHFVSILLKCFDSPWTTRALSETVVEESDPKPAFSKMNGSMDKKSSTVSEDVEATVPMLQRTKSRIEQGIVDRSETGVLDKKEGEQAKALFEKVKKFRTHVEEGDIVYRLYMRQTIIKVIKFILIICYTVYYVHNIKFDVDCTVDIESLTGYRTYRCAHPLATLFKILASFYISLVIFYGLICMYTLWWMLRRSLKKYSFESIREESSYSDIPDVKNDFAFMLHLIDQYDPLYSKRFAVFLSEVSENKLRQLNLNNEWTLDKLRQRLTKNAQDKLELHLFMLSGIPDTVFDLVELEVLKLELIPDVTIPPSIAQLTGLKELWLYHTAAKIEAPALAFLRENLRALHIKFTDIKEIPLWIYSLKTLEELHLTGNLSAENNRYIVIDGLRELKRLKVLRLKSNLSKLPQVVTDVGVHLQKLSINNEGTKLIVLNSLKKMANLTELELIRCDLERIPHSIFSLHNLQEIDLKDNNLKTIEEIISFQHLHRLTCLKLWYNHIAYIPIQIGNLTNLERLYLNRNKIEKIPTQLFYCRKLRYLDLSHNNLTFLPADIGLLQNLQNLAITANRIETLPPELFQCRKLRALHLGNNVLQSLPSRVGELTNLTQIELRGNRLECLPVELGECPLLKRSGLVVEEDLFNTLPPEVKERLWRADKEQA
Test: whole-cell patch clamp of swelling-induced anion current, WT vs LRRC8A-KO cells
Format: cell-based

Structure (SMILES): CCCCC1(C2CCCC2)Cc2cc(OCCCC(=O)O)c(Cl)c(Cl)c2C1=O (stereo not shown) [DCPIB, 4‐(2‐butyl‐6,7‐dichloro‐2‐cyclopentylindan‐1‐on‐5‐yl) oxybutyric acid]
- whole-cell patch clamp of swelling-induced anion current, WT vs LRRC8A-KO cells: 10 µM
